{"source": "patent US8853359B2", "about": "“Endokinin C/D-derived peptides” (University of Miyazaki, priority 2009, dated 2014)", "key": {"[1]": {"test_system": "substance P-induced scratching behavior", "test": "substance P-induced scratching behavior after intrathecal pre-administration of test peptide", "assay_type": "in vivo, rat", "conditions": "for scratching behavior induced by substance P / suppressive effects on scratching as administration interval is prolonged: Example 2, FIG. 2; for scratching behavior induced by substance P / suppressive effects on scratching as administration interval is prolonged / scratching behavior induced by substance P / suppressive effects: 10^-3M peptide; for scratching behavior induced by substance P / scratching behavior induced by substance P / suppressive effects: SP 4 hours after peptide; for scratching behavior induced by substance P: control about 380 scratching; for suppressive effects on scratching as administration interval is prolonged: interval 8 hours and then 14 hours; for scratching behavior induced by substance P / suppressive effects: Example 3, FIG. 3, control 380 scratching; for number of scratching events induced by substance P, relative to control group (saline+SP = 100%): 10^-3M (10 nmol/10 μl) peptide intrathecal, 10^-3M SP 30 minutes after peptide; for number of scratching events induced by substance P, relative to control group (saline+SP = 100%) / number of scratching events induced by substance P, relative to control group: FIG. 1", "method": "In Example 1, 10^−3M (10 nmol/10 μl) EKC/D or D-EKC/D (1), (2) or (3) was administered to intrathecally catheterized rats via catheters. After the predetermined time periods denoted on the horizontal axis in FIG. 1, the numbers of scratching events (scratching behavior) induced by intrathecal administration of 10^−3M (10 nmol/10 μl) substance P (hereafter, referred to as “SP”) were determined. Here, the expression “10^−3M (10 nmol/10 μl) EKC/D or D-EKC/D (1), (2), or (3) was administered” refers to a situation in which 10 μl in total of a solution (that is, 10^−3M solution) containing 10 nmol of EKC/D or D-EKC/D (1), (2), or (3) was all administered. The expression, “ . . . administration of 10^−3M substance P (10 nmol/10 μl)” refers to a situation in which 10 μl in total of a solution (that is, 10^−3M solution) containing 10 nmol of the substance was all administered. The same similarly applies below.\nMeanwhile, saline (10 μl) was intrathecally administered to intrathecally catheterized rats via catheters and then, after 30 minutes, 10^−3M SP (10 nmol/10 μl) was intrathecally administered to the rats. The number of the thus induced scratching events was determined to be the number of scratching events in the control group. The control group is denoted with saline-4-SP in FIG. 1.\nThe vertical axis of the graph in FIG. 1 indicates changes in the numbers of scratching events (represented by relative values) due to administration of 10^−3M EKC/D or D-EKC/D (1), (2), or (3) when the number of scratching events (of untreated rats in a control group) induced by intrathecal administration of 10^−3M substance P was determined to be 100%. Meanwhile, the horizontal axis indicates the intervals between the administration of EKC/D, D-EKC/D (1), (2), or (3) and 10^−3M substance P. […]\nThe test was conducted with procedures similar to those in Example 1, except for 4 hours of interval between the administration of each test peptide and the administration of substance P. The concentration of each test peptide and that of substance P for administration were determined to be 10^−3M (10 nmol/10 μl), similarly to Example 1. The number of scratching events in the control group was determined with procedures similar to those in Example 1, such that substance P was administered at 30 minutes after administration of saline (10 μl) and then the number was determined."}, "[2]": {"test_system": "SP-induced thermal hyperalgesia", "test": "SP-induced thermal hyperalgesia (withdrawal latency) after intrathecal pre-administration of peptide", "assay_type": "in vivo, rat", "conditions": "10^-3M (10 nmol/10 μl) peptide intrathecal, FIG. 7", "source_text": "In this test, the effects of intrathecal pre-administration with D-EKC/D (1), (2), and (3) on the induction of thermal hyperalgesia following intrathecal administration of SP were confirmed using as an index thermal hyperalgesia, which is one type of pain-related behavior. The effects can be evaluated based on withdrawal latency period, which is the time required for withdrawal response to take place after application of noxious thermal stimulation to plantar using infrared rays.\nIn Example 4, 10^−3M (10 nmol/10 μl) D-EKC/D (1), (2), or (3) was administered to intrathecally catheterized rats via catheters, intrathecal administration of 10^−6M (10 pmol/10 μl) SP was performed at 4 hours and at 8 hours after administration of D-EKC/D, the presence or the absence of hyperalgesia following intrathecal administration of SP was evaluated based on the time (latency period) required for withdrawal response to take place, the latency period following SP administration in rats pretreated with D-EKC/D and the latency period resulting from administration of SP alone were compared, and thus the effects of preadministration of D-EKC/D (1), (2), and (3) were evaluated."}, "[3]": {"conditions": "10^-3M peptide intrathecal, SP 1 hour after peptide"}, "[4]": {"conditions": "10^-6M SP 4 hours later, saline about 20 seconds, SP about 13 seconds"}, "[5]": {"conditions": "10^-3M (10 nmol/10 μl) Spantide I intrathecal, FIG. 6"}}, "note": "Entries after “also recorded” stand apart in the source; their conditions may differ. Square brackets hold non-standard residues; d marks the D form. Ends that are not written are not given here."}
{"substance": "His-Thr-Phe-Gln-DTrp-Leu-Leu-NH2 (HTFQXLL; HELM PEPTIDE1{H.T.F.Q.[dW].L.L.[am]}$$$$V2.0; N-terminus assumed; SMILES CC(C)C[C@H](NC(=O)[C@H](CC(C)C)NC(=O)[C@@H](Cc1c[nH]c2ccccc12)NC(=O)[C@H](CCC(N)=O)NC(=O)[C@H](Cc1ccccc1)NC(=O)[C@@H](NC(=O)[C@@H](N)Cc1c[nH]cn1)[C@@H](C)O)C(N)=O) [D-EKC/D (6)]", "values": [{"measurement": "scratching behavior induced by substance P", "setting": "[1]", "result": "significant suppressive effects were observed"}, {"measurement": "suppressive effects on scratching as administration interval is prolonged", "setting": "[1]", "result": "attenuated"}, {"measurement": "scratching behavior induced by substance P / suppressive effects", "setting": "[1]", "result": "attenuated"}]}
{"substance": "Phe-Gln-DTrp-Leu-Leu-NH2 (FQXLL; HELM PEPTIDE1{F.Q.[dW].L.L.[am]}$$$$V2.0; N-terminus assumed; SMILES CC(C)C[C@H](NC(=O)[C@H](CC(C)C)NC(=O)[C@@H](Cc1c[nH]c2ccccc12)NC(=O)[C@H](CCC(N)=O)NC(=O)[C@@H](N)Cc1ccccc1)C(N)=O) [D-EKC/D (8)]", "values": [{"measurement": "scratching behavior induced by substance P / suppressive effects", "setting": "[1]", "result": "Almost no suppressive effects; also recorded: almost the same as that of the control group"}]}
{"substance": "Thr-Phe-Gln-DTrp-Leu-Leu-NH2 (TFQXLL; HELM PEPTIDE1{T.F.Q.[dW].L.L.[am]}$$$$V2.0; N-terminus assumed; SMILES CC(C)C[C@H](NC(=O)[C@H](CC(C)C)NC(=O)[C@@H](Cc1c[nH]c2ccccc12)NC(=O)[C@H](CCC(N)=O)NC(=O)[C@H](Cc1ccccc1)NC(=O)[C@@H](N)[C@@H](C)O)C(N)=O) [D-EKC/D (7)]", "values": [{"measurement": "scratching behavior induced by substance P / suppressive effects", "setting": "[1]", "result": "attenuated; also recorded: minimum suppressive effects"}]}
{"substance": "Ala-Tyr-Gln-Leu-Glu-His-Thr-DTrp-Gln-DTrp-Leu-Leu-NH2 (AYQLEHTXQXLL; HELM PEPTIDE1{A.Y.Q.L.E.H.T.[dW].Q.[dW].L.L.[am]}$$$$V2.0; N-terminus assumed; SMILES CC(C)C[C@H](NC(=O)[C@H](CC(C)C)NC(=O)[C@@H](Cc1c[nH]c2ccccc12)NC(=O)[C@H](CCC(N)=O)NC(=O)[C@@H](Cc1c[nH]c2ccccc12)NC(=O)[C@@H](NC(=O)[C@H](Cc1c[nH]cn1)NC(=O)[C@H](CCC(=O)O)NC(=O)[C@H](CC(C)C)NC(=O)[C@H](CCC(N)=O)NC(=O)[C@H](Cc1ccc(O)cc1)NC(=O)[C@H](C)N)[C@@H](C)O)C(N)=O) [D-EKC/D (1)]", "values": [{"measurement": "number of scratching events induced by substance P, relative to control group (saline+SP = 100%)", "setting": "[1]", "result": "about 40%"}, {"measurement": "duration of suppressive effects on substance P-induced scratching behavior", "setting": "[1]; 10^-3M peptide intrathecal, 10^-3M SP", "result": "almost the same as that of the EKC/D consisting only of L-type amino acids"}, {"measurement": "number of scratching events induced by substance P, relative to control group", "setting": "[1]; [3]", "result": "disappeared"}, {"measurement": "effect on latency period following administration of SP", "setting": "[2]; [4]", "result": "significantly attenuated"}, {"measurement": "effect on latency period following administration of SP", "setting": "[2]; 10^-6M SP 8 hours later", "result": "differs from D-EKC/D (2) and (3) in duration of effectiveness"}]}
{"substance": "Leu-Glu-His-Thr-Phe-Gln-DTrp-Leu-Leu-NH2 (LEHTFQXLL; HELM PEPTIDE1{L.E.H.T.F.Q.[dW].L.L.[am]}$$$$V2.0; N-terminus assumed; SMILES CC(C)C[C@H](NC(=O)[C@H](CC(C)C)NC(=O)[C@@H](Cc1c[nH]c2ccccc12)NC(=O)[C@H](CCC(N)=O)NC(=O)[C@H](Cc1ccccc1)NC(=O)[C@@H](NC(=O)[C@H](Cc1c[nH]cn1)NC(=O)[C@H](CCC(=O)O)NC(=O)[C@@H](N)CC(C)C)[C@@H](C)O)C(N)=O) [D-EKC/D (4)]", "values": [{"measurement": "scratching behavior induced by substance P", "setting": "[1]", "result": "never induced"}, {"measurement": "suppressive effects on scratching as administration interval is prolonged", "setting": "[1]", "result": "gradually attenuated"}, {"measurement": "suppressive effects compared with [D-Trp^10]-EKC/D consisting of 12 amino acids", "setting": "[1]; Example 2 discussion", "result": "suppressive effects almost similar to those of [D-Trp^10]-EKC/D"}, {"measurement": "scratching behavior induced by substance P / suppressive effects", "setting": "[1]", "result": "attenuated"}]}
{"substance": "DArg-Pro-Lys-Pro-Gln-Gln-DTrp-Phe-DTrp-Leu-Leu-NH2 ([dR]PKPQQ[dW]F[dW]LL-NH2) [Spantide I, reference compound]", "values": [{"measurement": "duration of suppressive effects on substance P-induced scratching behavior", "setting": "[1]; [5]", "result": "≤ 30", "unit": "min"}, {"measurement": "effect on substance P-induced scratching behavior", "setting": "[1]; [5]", "result": "suppressed"}]}
{"substance": "Ala-Tyr-Gln-Leu-Glu-His-Thr-DTrp-Gln-Gly-Leu-Leu-NH2 (AYQLEHTXQGLL; HELM PEPTIDE1{A.Y.Q.L.E.H.T.[dW].Q.G.L.L.[am]}$$$$V2.0; N-terminus assumed; SMILES CC(C)C[C@H](NC(=O)[C@H](CC(C)C)NC(=O)CNC(=O)[C@H](CCC(N)=O)NC(=O)[C@@H](Cc1c[nH]c2ccccc12)NC(=O)[C@@H](NC(=O)[C@H](Cc1c[nH]cn1)NC(=O)[C@H](CCC(=O)O)NC(=O)[C@H](CC(C)C)NC(=O)[C@H](CCC(N)=O)NC(=O)[C@H](Cc1ccc(O)cc1)NC(=O)[C@H](C)N)[C@@H](C)O)C(N)=O) [D-EKC/D (2)]", "values": [{"measurement": "number of scratching events induced by substance P, relative to control group (saline+SP = 100%)", "setting": "[1]", "result": "about 20%"}, {"measurement": "number of scratching events induced by substance P, relative to control group", "setting": "[1]; [3]", "result": "slight tendency of restoration"}, {"measurement": "number of scratching events induced by substance P, relative to control group", "setting": "[1]; 10^-3M peptide intrathecal, administration interval of 45 minutes", "result": "almost the same effects were exhibited"}, {"measurement": "effect on latency period following administration of SP", "setting": "[2]; [4]", "result": "significantly attenuated"}, {"measurement": "effect on latency period following administration of SP", "setting": "[2]; 10^-6M SP 8 hours later", "result": "significant attenuation"}]}
